Results reported in PubChem BioAssay (NCI).
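Tested at 5 concentrations; 48 h exposure; 96-well plates; endpoints linearly interpolated, else capped at highest concentration. TGI: concentration producing complete growth inhibition.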

Key:
Assay in all cases: NCI tumour cell line growth inhibition, 48 h
[1] = tested on: A549 NSCLC
[2] = tested on: RXF-631 renal
[3] = tested on: SR leukemia
[4] = tested on: HCT-116 colon
[5] = tested on: 786-0 renal
[6] = tested on: MOLT-4 leukemia
[7] = tested on: SF-295 CNS
[8] = tested on: OVCAR-3 ovarian
[9] = tested on: KM20L2 colon
[10] = tested on: HOP-92 NSCLC
[11] = tested on: LOX IMVI melanoma
[12] = tested on: M19-MEL melanoma
[13] = tested on: SF-539 CNS
[14] = tested on: NCI-H226 lung
[15] = tested on: EKVX NSCLC
[16] = tested on: HL-60(TB) leukemia
[17] = tested on: UACC-62 melanoma
[18] = tested on: SNB-75 CNS
[19] = tested on: IGROV1 ovarian
[20] = tested on: SK-MEL-5 melanoma
[21] = tested on: CCRF-CEM leukemia
[22] = tested on: RPMI-8226 leukemia
[23] = tested on: ACHN renal
[24] = tested on: TK-10 renal
[25] = tested on: SK-OV-3 ovarian
[26] = tested on: LXFL 529 NSCLC
[27] = tested on: CAKI-1 renal
[28] = tested on: KM12 colon
[29] = tested on: K-562 leukemia
[30] = tested on: UACC-257 melanoma
[31] = tested on: M14 melanoma
[32] = tested on: SF-268 CNS
[33] = tested on: HT29 colon
[34] = tested on: NCI-H522 lung
[35] = tested on: DMS 273 small cell lung
[36] = tested on: SW-620 colon
[37] = tested on: SK-MEL-28 melanoma
[38] = tested on: HCC-2998 colon
[39] = tested on: U251 CNS
[40] = tested on: OVCAR-8 ovarian
[41] = tested on: OVCAR-4 ovarian
[42] = tested on: XF 498 CNS
[43] = tested on: SNB-19 CNS
[44] = tested on: HCT-15 colon
[45] = tested on: MALME-3M melanoma
[46] = tested on: COLO 205 colon
[47] = tested on: NCI-H460 lung
[48] = tested on: OVCAR-5 ovarian
[49] = tested on: DMS 114 small cell lung
[50] = tested on: SK-MEL-2 melanoma
[51] = tested on: RXF 393 renal
[52] = tested on: SN12C renal
[53] = tested on: HOP-62 NSCLC
[54] = tested on: UO-31 renal

Measured: TGI

N#CCc1ccccc1/C(C#N)=C1/OC(=N)C(c2ccccc2CC#N)C1=O (configuration not stated)
not listed: [38] | [39] | [40] | [41] | [42] | [43] | [44] | [45] | [46] | [47] | [48] | [49] | [50] | [51] | [52] | [53] | [54]
> 100 µM: all other assays above

C=CCC(O)c1cc(OC)ccc1OC (configuration not stated)
not listed: [3] | [4] | [6] | [9]
> 100 µM: all other assays above
